Experiments:
[1] = biological target: PCP recognition sites (PCP receptor); assay: [3H]TCP radioreceptor assay (binding to PCP recognition sites); parameters: species or system rat (male Sprague-Dawley; conditions: rat whole brain membranes, approx. 1 nM [3H]TCP; for Ki: mean of at least two determinations
Protocol: [^3 H]TCP Radioreceptor Assay
[^3 H]TCP binding to PCP recognition sites was performed as described by Vignon et al. Brain Research 1983, 280, 194-197. Male Sprague-Dawley rats were sacrificed by decapitation, and whole brains were homogenized in 10 volumes (wt/vol) of cold Tris-HCl buffer (50 mM, pH 7.7) using a Brinkmann Polytron (setting 6, 30 sec). The homogenate was centrifuged at 40,000×g for 10 min at 4° C. The supernatant was decanted, and the homogenization and centrifugation steps were repeated twice as described above. Following this, the pellet was resuspended in Tris-HCl (5 mM, pH 7.7) at a tissue concentration of 0.5-0.75 g/ml, and one ml aliquots were frozen at -70° C. until use. The binding characteristics for PCP recognition sites were not altered by the freezing of membrane suspensions.
On the day of the assay, membrane aliquots were thawed, resuspended in fresh 5 mM Tris-HCl buffer at a tissue concentration of 1 mg/ml, and stored on ice until use. Each assay tube contained 100 μl of [^3 H]TCP at a final concentration of approximately 1 nM, 100 μl of various concentrations of the compounds of interest, 500 μl of the tissue suspension and 300 μl of buffer to a final assay volume of 1 ml and a final protein concentration of 0.5 mg/tube. Non-specific binding was defined by addition of a final concentration of 100 μM PCP to blank tubes. All tubes were incubated at room temperature for 25 min before termination of the reaction by rapid filtration over Whatman GF/B glass fiber filters that had been presoaked in a solution of 0.5% polyethylenimine for at least 1 hr prior to use. Filters were washed with three 4 ml volumes of cold Tris buffer. Following addition of scintillation cocktail, the amount of bound radioactivity was determined by liquid scintillation spectrometry using a Beckman LS 5000TA liquid scintillation counter with an efficiency for tritium of approximately 55%. Inhibition constants (Ki values) were calculated using the EBDA/LIGAND program (McPherson, J. Pharmacol. Meth. 1985, 14, 213-228), purchased from Elsevier/Biosoft, Inc. The results are reported as Ki values (in nM) which are expressed as the mean of at least two separate determinations, or as a percent (%) inhibition of binding at 10 μM.
(§1) Table 4 summarizes the results obtained from the testing of representative compounds of the invention in the [^3 H]TCP radioreceptor assay as well as in the antagonism of NMDA-induced neurotoxicity in cultured neurons.

[2] = test system: NMDA-induced neurotoxicity in cultured cortical neurons; assay: Antagonism of NMDA-induced neurotoxicity in cultured neurons; format: cell-based, mouse (Swiss-Webster); conditions: Mus musculus, Cortical neurone, 500 μM NMDA for 30 minutes; LDH activity after 24 hours
Protocol: Antagonism of NMDA-induced Neurotoxicity in Cultured Neurons
Preparation of cultured cortical neurons
Pregnant, Swiss-Webster mice were obtained from Taconic Farms (Germantown, N.Y.) and sacrificed 16 days post conception. Fetuses were removed and placed in a sterile dish containing Hank's balanced salt solution (HBSS), pH 7.4. Brain cortices were dissected, meninges were removed, the tissue was minced and placed into a solution of HBSS containing 0.25% (w/v) trypsin at 37° C. for 15 minutes. Tissue was then triturated with a sterile pasteur pipet, diluted with minimal essential media (Gibco 330-1430), pH 7.4, supplemented with 10% horse serum, 10% fetal calf serum, 2 mM 1-glutamine, 21 mM d-glucose, 2.2 g/L sodium bicarbonate, 1000 U/ml penicillin, and 1,000 μg/ml streptomycin. Cells were plated onto Falcon primaria 96 well plates at a final density of 50,000 cells/well and incubated at 37° C. in the presence of 5% (v/v) carbon dioxide. After 5 days, plating media was replaced with maintenance media containing minimal essential media (Gibco 330-1430), pH 7.4, supplemented with 10% horse serum, 10% 1-glutamine, 21 mM D-glucose, 2.2 g/l sodium bicarbonate,1,000 U/ml penicillin, 1,000 μg/ml streptomycin, and 10 μM cytosine arabinoside. On days 7 and 10, media was replaced with maintenance media as above lacking the cytosine arabinoside. Experiments were conducted on day 13.
Neuroprotection Assessment
Day 13 cultured cortical neurons were washed twice with minimal essential media, pH 7.4 and then exposed for 30 minutes to 500 μM N-methyl-D-aspartic acid (NMDA) with or without varying concentrations of test agents. […] MK-801 and test agents were prepared in minimal essential media supplemented with 21 mM d-glucose and 2.2 g/L sodium bicarbonate (MEM). After 30 minutes, media was replaced with MEM alone. Exposure of neurons to test agents was limited to the NMDA treatment period. Twenty-four hours after removal of NMDA, an aliquot of media from each well was removed for assessment of cell injury by determining lactate dehydrogenase (LDH) activity by the method of Wroblewski and LaDue Proc. Soc. Exp. Biol. Med. 1955, 90, 210-213. The results are expressed as an IC50 (in nM) value (concentration causing 50% inhibition) for the antagonism of NMDA-induced neurotoxicity.
as §1

CCOC1(OCC)C2c3ccccc3C([n+]3ccsc32)C1(C)C (stereo not shown) [Example 1i, 11,11-diethoxy-12,12-dimethyl-5,10-ethano-5,10-dihydrothiazolo[3,2-b]isoquinolinium chloride 3/5 hydrate]
Ki [1]: 0.0061 µM
IC50 [2]: 0.173 µM

Cn1nc[n+]2c1C1c3ccccc3C2CC1(c1ccccc1)c1ccccc1 (stereo not shown) [11(g), 11,11-diphenyl-5,10-ethano-5,10-dihydro-1-methyl-1,2,4-triazo[1,2-b]isoquinolin-4-ium chloride]
Ki [1]: 0.035 µM

c1ccc2c(c1)C1CC(c3ccn[nH]3)(c3ccn[nH]3)C2c2scc[n+]21 (stereo not shown) [18(h), 11,11-di-(pyrazol-5-yl)-5,10-ethano-5,10-dihydrothiazolo[3,2-b]isoquinolinium chloride]
Ki [1]: 0.021 µM
IC50 [2]: 0.48 µM

c1ccc(-n2cc[n+]3c2C2c4ccccc4C3CC2(c2ccoc2)c2ccoc2)cc1 (stereo not shown) [199(f), 11,11-di(3-furyl)-5,10-ethano-5,10-dihydro-1-phenylimidazo[1,2-b]isoquinolin-4-ium chloride]
Ki [1]: 0.0522 µM

Oc1cccc2c1C1c3scc[n+]3C2CC1(c1ccoc1)c1ccoc1 (stereo not shown) [206(f), 11,11-di(3-furyl)-9-hydroxy-5,10-ethano-5,10-dihydrothiazolo[3,2-b]isoquinolinium chloride]
Ki [1]: 0.00187 µM
IC50 [2]: 0.0209 µM

CCOC1(OCC)C2c3c(OC)cccc3C([n+]3ccsc32)C1(C)C (stereo not shown) [6(d), 11,11-diethoxy-12,12-dimethyl-9-methoxy-5,10-ethano-5,10-dihydrothiazolo[3,2-b]isoquinolinium chloride]
Ki [1]: 0.0092 µM
IC50 [2]: 0.079 µM

CCOC1(OCC)C2c3ccccc3C([n+]3ccn(C)c32)C1(C)C (stereo not shown) [7(F), 11,11-diethoxy-12,12-dimethyl-5,10-ethano-5,10-dihydro-1-methylimidazo[1,2-b]isoquinolin-4-ium chloride]
Ki [1]: 0.0082 µM
IC50 [2]: 0.053 µM

c1ccc2c(c1)C1CC(c3ccoc3)(c3ccoc3)C2c2n(Cc3ccc4ccccc4c3)cc[n+]21 (stereo not shown) [204(e), 11,11-di(3-furyl)-5,10-ethano-5,10-dihydro-1-(2-naphthyl-methyl)imidazo[1,2-b]isoquinolin-4-ium chloride]
Ki [1]: 0.33 µM

c1ccc(Cn2cc[n+]3c2C2c4ccccc4C3CC2(c2cc[nH]n2)c2cc[nH]n2)cc1 (stereo not shown) [202(c), 11,11-di(pyrazol-3-yl)-5,10-ethano-5,10-dihydro-1-benzylimidazo-[1,2-b]isoquinolin-4-ium chloride]
Ki [1]: 0.0365 µM

COc1ccc(Cn2ccc(C3(c4ccn(Cc5ccc(OC)cc5)n4)CC4c5ccccc5C3c3scc[n+]34)n2)cc1 (stereo not shown) [18(e), 11,11-di-[(1-p-methoxybenzyl)-pyrazol-3-yl)]-5,10-ethano-5,10-dihydrothiazolo[3,2-b]isoquinolinium perchlorate]
[3H]TCP percent inhibition of binding @ 10 μM ([1]; 10 μM): 6%

COc1ccc(Cn2cc[n+]3c2C2c4ccccc4C3CC2(c2ccoc2)c2ccoc2)cc1 (stereo not shown) [19(F), 11,11-di(3-furyl)-5,10-ethano-5,10-dihydro-1-(p-methoxybenzyl)imidazo[1,2-b]isoquinolin-4-ium chloride]
Ki [1]: 0.03 µM

c1ccc(C2(c3ccccc3)CC3c4ccccc4C2c2scc[n+]23)cc1 (stereo not shown) [2(b), 11,11-diphenyl-5,10-ethano-5,10-dihydrothiazolo[1,2-b]isoquinolin-4-ium chloride]
Ki [1]: 0.0042 µM

c1ccc(Cn2cc[n+]3c2C2c4ccccc4C3CC2(c2ccoc2)c2ccoc2)cc1 (stereo not shown) [2(F), 11,11-di(3-furyl)-5,10-ethano-5,10-dihydro-1-benzylimidazo[1,2-b]isoquinolin-4-ium chloride]
Ki [1]: 0.0077 µM

COc1cccc2c1C1c3scc[n+]3C2CC1(c1ccoc1)c1ccoc1 (stereo not shown) [207(b), 11,11-di(3-furyl)-9-methoxy-5,10-ethano-5,10-dihydrothiazolo[3,2-b]isoquinolinium chloride]
Ki [1]: 0.0141 µM

c1ccc2c(c1)C1CC(c3ccoc3)(c3ccoc3)C2c2scc[n+]21 (single isomer, unassigned; (-)) [5(c), (-)-11,11-di(3-furyl)-5,10-ethano-5,10-dihydrothiazolo[3,2-b]isoquinolinium chloride]
Ki [1]: 0.005 µM
IC50 [2]: 0.032 µM

CCOC1(OCC)C2c3ccccc3C([n+]3ccn(Cc4ccccc4)c32)C1(C)C (stereo not shown) [8(b), 11,11-diethoxy-12,12-dimethyl-5,10-ethano-5,10-dihydro-1-benzylimidazo[1,2-b]isoquinolin-4-ium chloride]
Ki [1]: 0.01 µM

CCCCn1cc[n+]2c1C1c3ccccc3C2CC1(c1ccoc1)c1ccoc1 (stereo not shown) [201(f), 11,11-di(3-furyl)-5,10-ethano-5,10-dihydro-1-butylimidazo-[1,2-b]isoquinolin-4-ium chloride]
Ki [1]: 0.0363 µM

c1ccc(Cn2cc[n+]3c2C2c4ccccc4C3CC2(c2ccccc2)c2ccccc2)cc1 (stereo not shown) [9(b), 11,11-diphenyl-5,10-ethano-5,10-dihydro-1-benzylimidazo[1,2-b]isoquinolin-4-ium chloride]
Ki [1]: 0.089 µM

Cn1cc[n+]2c1C1c3ccccc3C2CC1(c1ccccc1)c1ccccc1 (stereo not shown) [3(b), 11,11-diphenyl-5,10-ethano-5,10-dihydro-1-methylimidazo[1,2-b]isoquinolin-4-ium chloride]
Ki [1]: 0.013 µM

c1ccc2c(c1)C1CC(c3ccoc3)(c3ccoc3)C2c2n(Cc3cccc4ccccc34)cc[n+]21 (stereo not shown) [205(e), 11,11-di(3-furyl)-5,10-ethano-5,10-dihydro-1(1-naphthylmethyl)imidazo[1,2-b]isoquinolin-4-ium chloride]
Ki [1]: 0.329 µM

c1ccc(CCCn2cc[n+]3c2C2c4ccccc4C3CC2(c2ccoc2)c2ccoc2)cc1 (stereo not shown) [200(g), 11,11-di(3-furyl)-5,10-ethano-5,10-dihydro-1-(3-phenylpropyl)imidazo[1,2-b]isoquinolin-4-ium chloride]
Ki [1]: 0.0678 µM

c1ccc(C(c2ccccc2)n2cc[n+]3c2C2c4ccccc4C3CC2(c2ccoc2)c2ccoc2)cc1 (stereo not shown) [203(d), 11,11-di(3-furyl)-5,10-ethano-5,10-dihydro-1-(1,1-diphenylmethyl)imidazo[1,2-b]isoquinolin-4-ium hexafluorophosphate]
Ki [1]: 0.306 µM

Cn1nc[n+]2c1C1c3ccccc3C2CC1(c1ccoc1)c1ccoc1 (stereo not shown) [14(E), 11,11-di(3-furyl)-5,10-ethano-5,10-dihydro-1-methyl-1,2,4-triazolo[1,2-b]isoquinolin-4-ium chloride]
Ki [1]: 0.014 µM

O=C1CC(C2(C3=COC(=O)C3)CC3c4ccccc4C2c2scc[n+]23)=CO1.[O-][Cl+3]([O-])([O-])[O-] (stereo not shown) [Example 17, 11,11-di-(5-oxo-4,5-dihydro-3-furyl)-5,10-ethano-5,10-dihydrothiazolo[3,2-b]isoquinolinium perchlorate]
Ki [1]: 0.64 µM

CCOC1(OCC)C2c3ccccc3C([n+]3cnn(C)c32)C1(C)C (stereo not shown) [10(b), 11,11-diethoxy-12,12-dimethyl-5,10-ethano-5,10-dihydro-1-methyl-1,2,4-triazolo[1,2-b]isoquinolin-4-ium chloride]
Ki [1]: 0.03 µM

— patent publication US5569655A, “Substituted heterocyclylisoquinolinium salts and compositions and method of use thereof” (Sterling Winthrop Inc., priority 1994, dated 1996)
